One data set is described as follows: in vitro. The note with it: bovine, CC50 (μM) Con A blasts.
Data set [1] concerns F100TpM, a bovine lymphocyte cell line infected by T. parva. The experiment in a line: 3H-thymidine incorporation growth assay on F100TpM cells (screen at 1 μM and IC50 titration).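 As to all read-outs here: growth inhibition compared against wells lacking compound, run in triplicate, and CC50 derived from 3H-thymidine uptake by PBMC stimulated with ConA.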 The note with it: for TI (CC50/IC50), therapeutic index: CC50 on Con A blasts divided by IC50 on F100TpM. A general note: Dividing cells build labelled thymidine or BrdU into new DNA.
Method: (§1) All the MMV compounds were initially tested for inhibitory activity on the growth of F100TpM, a bovine lymphocyte cell line infected by T. parva. […] All compounds were tested in triplicate.
(§2) The radiolabeled precursor ^3H-thymidine is incorporated into DNA strands during cell replication and radioisotope incorporation is often used as a measure of cell proliferation.
(§3) IC50 values were calculated using the Graph Pad Prism 7 software (GraphPad Software, Inc., La Jolla, CA), and average values of radio-isotope incorporation in wells with and without compound on the growth of F100TpM cells. The CC50 values were calculated using ^3H-thymidine incorporation values determined on the growth of PBMC stimulated with ConA. The therapeutic index of a compound was calculated by dividing the CC50 value with the IC50 value.
For the next data set, the system named is Trypanosoma cruzi. On the set-up: method as in Van Voorhis et al., 2016. The note with it: at 5 μM; ref Van Voorhis et al., 2016; cited from earlier work.
In data set [2] the test system is P. falciparum gametocyte NF54-late stage. On the set-up: method as in Van Voorhis et al., 2016. The following applies: at 5 μM; ref Van Voorhis et al., 2016; cited from earlier work.
In data set [3] the test system is P. falciparum 3D7 asexual blood stage. The note with it: cited from earlier work.
In data set [4] the test system is bovine PBMC stimulated with ConA (Con A blasts). Kind of data set: 3H-thymidine incorporation toxicity assay on ConA-stimulated uninfected bovine PBMC (CC50). The following applies: read-out: CC50 (μM) Con A blasts; uninfected bovine PBMC stimulated with ConA, 48 h compound, 3H-thymidine incorporation.
Method: as §1, §2, §3
Experiment in data set [5]: as above
Method: as §1, §2, §3
The note with it: bovine, uninfected bovine PBMC stimulated with ConA (Con A blasts), CC50 (μM) Con A blasts, uninfected bovine PBMC stimulated with ConA, 48 h compound, 3H-thymidine incorporation.

Data set [6] deals with Plasmodium berghei ookinete. The arrangement: method as in Van Voorhis et al., 2016. The following applies: at 10 μM; ref Van Voorhis et al., 2016; cited from earlier work.
The next data set has as its system U87. On the set-up: method as in Van Voorhis et al., 2016. The following applies: at 5 μM; only one of nine cell lines tested; ref Van Voorhis et al., 2016; cited from earlier work.
On the set-up of data set [7]: method as in MMV data sheet. The note with it: at 5 uM; ref MMV data sheet; cited from earlier work.
On the set-up of data set [8]: method as in MMV data sheets. The following applies: at 5 uM; ref MMV data sheets; cited from earlier work.
Data set [9] relates to human foreskin fibroblast control cells. On the set-up: method as in Hostettler et al., 2016. The note with it: T. annulata assay; ref Hostettler et al., 2016; cited from earlier work.
Another data set relates to T. annulata gene TaSP. On the set-up: method as in Hostettler et al., 2016. The note with it: ref Hostettler et al., 2016; cited from earlier work.
In data set [10] the test system is Theileria annulata infected cell lines. On the set-up: method as in Hostettler et al., 2016. The following applies: ref Hostettler et al., 2016; cited from earlier work.
Data set [11] concerns bovine PBMC stimulated with ConA (Con A blasts).
Method: as §1, §2, §3
[12] abbreviates: read-out: IC50 (μM) F100TpM, T. parva infected lymphocyte cell line, 48 h compound, 3H-thymidine incorporation.
Where [13] appears, read: Bos taurus, Lymphocyte, read-out: IC50 (μM) F100TpM, T. parva infected lymphocyte cell line, 48 h compound, 3H-thymidine incorporation.
Setting [14] is: given in Comment because of solubility issue at 5 uM, ref MMV data sheets.
Where [15] appears, read: source GSK, ref ChEMBL_NTD, read-out: CHEMBL EC50.

Where two headings read alike, the source gives them in different places. Where only a bound is given, the exact number is not on record here.

Method for in vitro: as §1, §2, §3

Turning to `Cc1nc(Nc2ncc(C(=O)Nc3c(C)cccc3Cl)s2)cc(N2CCN(CCO)CC2)n1` [Dasatinib, dasatinib, reference compound], the CC50 at 48 h in “in vitro” was > 10 µM. Also, the “TI (CC50/IC50), therapeutic index” value in [1] is on record as > 2000.
As to `COC(=O)Nc1nc2ccc(C(=O)c3ccccc3)cc2[nH]1` [MMV003152, Mebendazole, reference compound], the CC50 at 48 h in “in vitro” is < 0.001 µM. Further, in data set [1], the “TI (CC50/IC50), therapeutic index” value is reported as <0.001. The IC50 in data set [1] (setting [12]) is 0.36 µM; in [1] (read-out: IC50 (μM) F100TpM, T. parva infected lymphocyte cell line, 48 h compound, 3H-thymidine incorporation, listed as mebendazole), < 1 µM.
For `COc1ccc2nc(C)cc(Nc3cccc(O)c3)c2c1` [MMV008212], in the data set with Trypanosoma cruzi, the “growth inhibition of Trypanosoma cruzi” value is 100%. The “growth inhibition of P. falciparum gametocyte NF54-late stage” value in [2] is recorded as 91%. Moreover, in [3] (MMV Malaria Box sheet, ref MMV data sheets), the “percent_inh @ 5 uM” value is given as 98%. For the same compound, the EC50 is 969 nM in data set [3] (MMV Malaria Box sheet, ref MMV data sheets, read-out: EC50_nM) and 228 nM in data set [3] (source GNF, ref ChEMBL_NTD, read-out: CHEMBL EC50). Moreover, in [3] (at 5 μM, ref Van Voorhis et al., 2016), the “growth inhibition of P. falciparum 3D7 asexual blood stage” value was 98%. Besides, the CC50 in [4] is > 10 µM. The CC50 at 48 h in data set [5] is > 5 µM. In addition, the IC50 in data set [1] (setting [13]) was determined as 0.78 µM. Also, in [1], the “TI (CC50/IC50), therapeutic index” value is reported as >12. For the same compound, the “growth inhibition of Plasmodium berghei ookinete” value in data set [6] is listed as 76%. Besides, the “cell death, U87 cell line” value in the data set with U87 is 76%.
`CCOc1cccc(C(=O)Nc2ccc(-c3nc4ccccc4[nH]3)cc2)c1` [MMV019202]: the “Solubility (Comment)” value in [7] was “Solubility issue at 5 uM”. The “% inh. At 2.5 uM” value in [3] (Comment column, ref MMV data sheet) is 97%. Further, in data set [3] (value(s) per source (GSK, GNF, StJude), separated by semicolon, ref ChEMBL-NTD, read-out: CHEMBL EC50), the EC50 was 1010 nM.
Take `COc1ccc(-c2nonc2NC(=O)c2cccc(Cl)c2)cc1OC` [MMV020660]: the “Comment: solubility” value in [8] is on record as “Solubility issue at 5 uM”. In data set [3] (setting [14]), the “% inh. At 2.5 uM” value is 97%. Moreover, the EC50 in data set [3] (setting [15]) is 876 nM.
`COc1ccc2c(=O)cc(C(Cl)(Cl)Cl)oc2c1` [MMV665820]: the “viability of human foreskin fibroblast control cells” value in [9] is given as “did not impair viability”. Also, in data set [3] (MMV Malaria Box data sheet, ref MMV data sheets), the “percent_inh @ 5 uM” value was 94%. The EC50 in data set [3] (MMV Malaria Box data sheet, ref MMV data sheets, read-out: EC50_nM) is 520 nM; in data set [3] (source StJude, ref ChEMBL_NTD, read-out: CHEMBL EC50), 15000 nM. In addition, the “lowering of relative expression of T. annulata gene TaSP” value in the data set with T. annulata gene TaSP was “failed to lower the relative expression of T. annulata gene TaSP by 50%”. Further, the “inhibitory activity on T. annulata cell lines” value in data set [10] is “inhibitory”. The compound also came in with a CC50 at 48 h in data set [5] of 0.25 µM. Besides, in [1] (setting [13]), the IC50 turned out to be 0.15 µM. In data set [1], the “TI (CC50/IC50), therapeutic index” value is recorded as 1.67.
As to `CC(=O)c1ccc(NC(=O)CSc2nc(-c3ccccc3Cl)ns2)cc1` [MMV666124], in data set [8], the “Comment: solubility” value is on record as “Solubility issue at 5 uM”. In [3] (setting [14]), the “% inh. At 2.5 uM” value was 88%. The EC50 in [3] (setting [15]) was 1130 nM.
For the compound `CO[C@@H](C(=O)N1Cc2[nH]nc(NC(=O)c3ccc(N4CCN(C)CC4)cc3)c2C1)c1ccccc1` [MMV676600], the CC50 in data set [11] is < 1 nM. Also, the “TI (CC50/IC50), therapeutic index” value in data set [1] is <0.001. Besides, the IC50 in [1] (setting [12]) is 0.55 µM.
In data set [11], `N=C(N)Nc1ccc(-c2ccc(-c3ccc(N=C(N)N)c(Cl)c3)o2)cc1Cl` [MMV688271] came in with a CC50 of 560 nM. For the same compound, the “TI (CC50/IC50), therapeutic index” value in [1] is reported as 0.95. Moreover, the IC50 in data set [1] (setting [12]) stood at 0.59 µM.
